Data set [1] relates to patients. Conditions: human, in vivo; cited from earlier work.
Data set [2] has as its system patients. Particulars: patients administered with Anacetrapib; cited from earlier work.
Data set [3] relates to H295R cell line (human adrenal cortical tumor cells). In kind it is cell-based. Particulars: 24 hours, 100 nM of torcetrapib, 1 μM of test compounds. On the procedure:
Evaluation of the Ability of CETP Inhibitor to Secrete Blood Pressure-Hormone
Based on this, the secretion of blood pressure-increasing hormones from human adrenal cortical tumor cells was evaluated. The cell line H295R was purchased from ATCC (CRL-2128) and cultured in DMEM/F-12 medium (1% ITS, 2.5% Nu-serum). The H295R cell line was dispensed into a 24-well plate at a cell density of 1×10^5/well, and stabilized for 24 hours, after which the cells were starved for 24 hours using serum-free DMEM/F-12. Then, the cells were treated with each of 100 nM of torcetrapib and 1 μM of test compounds 554, 557, 574, 584, 586, 593, 618, 643, 650, 661, 681 and 695. At 24 hours after treatment with the drug or the compound, the supernatant was taken and stored at −20° C. The supernatant stored at −20° C. was thawed, and the amounts of aldosterone and cortisol secreted from the cells were measured using an aldosterone EIA kit (Cayman-10004377) and cortisol EIA kit (Cayman-500360).
2. Statistical Processing
(§1) All test results were expressed as Mean±SEM, and to evaluate the effect of each test group, each test group was compared with the control group using one-way ANOVA test (Dunnett's test, p<0.001).

The subject of data set [4] is human adrenal cortical tumor cells. Conditions: cited from earlier work.
The test system of data set [5] is patients. Conditions: cited from earlier work.
Data set [6] deals with patients. Conditions: human, in vivo; cited from earlier work. This is another data set of the same source.
The subject of the next data set is golden Syrian hamsters. Nature of the data set: Test for anti-hyperlipidemic effect in hamsters (in vivo). Particulars: Mesocricetus auratus, po, 3 mg/kg orally for 5 days, blood 4 hours after final administration, vs control; for inhibition in vivo at 3 mg/kg: read-out: Decrease in LDL-c (%); for change in vivo at 3 mg/kg: read-out: Increase in HDL-c (%).
Source text: Test for Anti-Hyperlipidemic Effect in Hamsters (In Vivo)
In this test, 8-week-old male golden Syrian hamsters were used. The breeding room was maintained at constant temperature and constant humidity and a 12-hr light/12-hr dark cycle. The animals were allowed access to feed and water ad libitum.
2. Anti-Hyperlipidemic Test in Hamsters
The test animals were acclimated for 1 week before use in the test. The test animals were divided according to body weight into several groups, each consisting of 5-8 animals, and were then administered orally with a dose of 3 mg/kg. A solvent control and a CETP inhibitor were dissolved in imwitor 742: tween 80 (1:1) and administered orally for 5 days, and at 4 hours after the final administration, blood was collected from the heart. The collected blood was centrifuged at 3000 rpm for 15 minutes, and the separated serum was measured for HDL-Cholesterol (Biosystem) and LDL-Cholesterol (Biosystem) using a biochemical analysis instrument (ILab 300 plus, Instrumentation Laboratory).
(§2) 3. Statistical Processing
as §1

The target of a further data set is CETP (Homo sapiens (Human), UniProt P11597). The data set can be described thus: Test for inhibition of cholesteryl ester transfer (in vitro). It is filed as biochemical. Particulars: human plasma as CETP source, LDL from healthy persons as acceptor, rHDL-agarose donor, 37° C.
Source text: Test for Inhibition of Cholesteryl Ester Transfer (In Vitro)
1. Construction of Cholesteryl Ester Donor
To construct a cholesteryl ester donor to be used in the test, radiolabeled recombinant HDL containing […] (GE healthcare, TRK886, 3.5 μCi/mg of apoA-1) and apoA-1 was synthesized. Then, rHDL-agarose having the recombinant HDL immobilized thereon by CNBr-activated Sepharose 4B (Amersham Biosciences, Sweden) resin was used in the test.
2. Cholesteryl Ester Transfer Test
As a protein source for cholesteryl ester transfer, plasma from healthy persons was used, and as a cholesteryl ester receptor, LDL from healthy persons was used. Samples were treated with each test compound to final concentrations of 16, 80, 400, 2000 and 10000 nM and analyzed in duplicate. For the cholesteryl ester transfer test, 20 μl of plasma, 50 μl of LDL (0.25 mg/ml) and 50 μl of rHDL-agarose (0.25 mg/ml) were added, and a solution containing a test compound was added, followed by reaction at 37° C. Then, centrifugation was performed at 4° C. for 3 minutes to stop the reaction, and 150 μl of the supernatant was taken and transferred to a 96-well plate for radioactivity measurement, and the radioactivity of the plate was measured with a beta-ray detector.
as §2
The ratio of [^3H]-cholesteryl oleate from HDL to LDL was calculated and used as a result value, and from the result value, IC50 value was calculated using GraphPad Prism 5.0.

SMILES strings stand for the structures.

CETP, sequence (P11597 18-493): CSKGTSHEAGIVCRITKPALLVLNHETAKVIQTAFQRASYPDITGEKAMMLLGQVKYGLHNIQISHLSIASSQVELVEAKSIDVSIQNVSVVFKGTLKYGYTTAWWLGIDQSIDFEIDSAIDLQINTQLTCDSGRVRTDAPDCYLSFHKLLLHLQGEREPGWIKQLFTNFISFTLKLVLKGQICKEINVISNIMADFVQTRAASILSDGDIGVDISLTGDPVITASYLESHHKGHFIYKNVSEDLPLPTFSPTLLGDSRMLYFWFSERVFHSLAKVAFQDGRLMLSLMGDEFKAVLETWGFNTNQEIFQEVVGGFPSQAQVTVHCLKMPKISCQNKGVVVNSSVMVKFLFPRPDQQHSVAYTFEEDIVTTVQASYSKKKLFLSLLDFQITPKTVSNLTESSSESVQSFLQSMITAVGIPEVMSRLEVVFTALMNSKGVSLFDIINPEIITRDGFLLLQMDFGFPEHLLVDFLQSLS

Take `Cc1cc(C)c2c(c1)[C@@H](N(Cc1cc(C(F)(F)F)cc(C(F)(F)F)c1)c1nnn(C)n1)CCCN2C[C@H]1CC[C@H](C(=O)O)CC1` [Evacetrapib]: in the data set on patients [1], the HDL-c levels result is “increases HDL-c levels in a dose-dependent manner” and the “side effects such as blood pressure elevation” value was “does not cause side effects such blood pressure elevation”.

As to `COc1cc(F)c(C(C)C)cc1-c1ccc(C(F)(F)F)cc1CN1C(=O)O[C@H](c2cc(C(F)(F)F)cc(C(F)(F)F)c2)[C@@H]1C` [Anacetrapib], in the data set on patients [2], the HDL-c level increase is reported as 138% and the LDL-c level decrease is 40%.

On to `CCOC(=O)N1c2ccc(C(F)(F)F)cc2[C@@H](N(Cc2cc(C(F)(F)F)cc(C(F)(F)F)c2)C(=O)OC)C[C@H]1CC` [torcetrapib], for which, in data set [3], the secretion of aldosterone entry is reported as “increased the secretion of the two hormones” and the secretion of cortisol entry is reported as “increased the secretion of the two hormones”. In data set [4], the secretion of aldosterone entry is “increased the secretion of aldosterone and cortisol”; the secretion of cortisol entry is “increased the secretion of aldosterone and cortisol”. Further, the “morbidity rate and mortality rate” value in the data set with patients [5] (combination of torcetrapib and atorvastatin compared to atorvastatin alone) is “increase”. In the data set with patients [5] (human, in vivo), the blood pressure result is “causes an increase in blood pressure” and the mortality rate entry is “an increase in mortality rate”.

For `CCC(CC)CC1(C(=O)Nc2ccccc2SC(=O)C(C)C)CCCCC1` [Dalcetrapib], in the data set on patients [6], the “effects (efficacy)” value is on record as “insufficient effects” and the side effects entry was “does not have the side effects of Torcetrapib”.

As a reminder, the IC50 is the concentration needed to halve the response being measured. A high value points to weaker potency in that assay. As to `COc1ncc(-c2ccc(C(=O)O)cc2C)cc1C1=C(CN2C(=O)O[C@H](c3cc(C(F)(F)F)cc(C(F)(F)F)c3)[C@@H]2C)CC(C)(C)CC1` [Compound 557, 4-(3-(2-(((4S,5R)-5-(3,5-bis(trifluoromethyl)phenyl)-4-methyl-2-oxooxazolidin-3-yl)methyl)-4,4-dimethylcyclohex-1-enyl)-2-methoxypyridin-5-yl)-3-methylbenzoic acid], in the data set on golden Syrian hamsters, the inhibition in vivo at 3 mg/kg is 39% and the change in vivo at 3 mg/kg amounted to 77%. Also, inhibition against CETP was half-maximal at 5.4 nM (IC50).

On to `COc1ccc(-c2ccc(C(=O)O)cc2Cl)cc1C1=C(CN2C(=O)O[C@H](c3cc(C(F)(F)F)cc(C(F)(F)F)c3)[C@@H]2C)CC(C)(C)CC1` [Compound 643, 3′-(2-(((4S,5R)-5-(3,5-bis(trifluoromethyl)phenyl)-4-methyl-2-oxooxazolidin-3-yl)methyl)-4,4-dimethylcyclohex-1-enyl)-2-chloro-4′-methoxybiphenyl-4-carboxylic acid], for which, in the data set on golden Syrian hamsters, the inhibition in vivo at 3 mg/kg is 17% and the change in vivo at 3 mg/kg stood at 68%. Further, the IC50 at CETP turned out to be 7.3 nM.

In the case of `C[C@H]1[C@@H](c2cc(C(F)(F)F)cc(C(F)(F)F)c2)OC(=O)N1CC1=C(c2cc(-c3ccc(C(=O)O)cc3C(F)(F)F)ccc2F)CCC(C)(C)C1` [Compound 695, 3′-(2-(((4S,5R)-5-(3,5-bis(trifluoromethyl)phenyl)-4-methyl-2-oxooxazolidin-3-yl)methyl)-4,4-dimethylcyclohex-1-enyl)-4′-fluoro-2-(trifluoromethyl)biphenyl-4-carboxylic acid], in the data set on golden Syrian hamsters, the inhibition in vivo at 3 mg/kg turned out to be 35% and the change in vivo at 3 mg/kg is 71%. This compound also returned a half-inhibitory concentration (IC50) against CETP of 6.4 nM.

For `COc1ccc(-c2c(F)cc(C(=O)O)cc2F)cc1C1=C(CN2C(=O)O[C@H](c3cc(C(F)(F)F)cc(C(F)(F)F)c3)[C@@H]2C)CC(C)(C)CC1` [Compound 593, 3′-(2-(((4S,5R)-5-(3,5-bis(trifluoromethyl)phenyl)-4-methyl-2-oxooxazolidin-3-yl)methyl)-4,4-dimethylcyclohex-1-enyl)-2,6-difluoro-4′-methoxybiphenyl-4-carboxylic acid], in the data set with golden Syrian hamsters, the inhibition in vivo at 3 mg/kg came out at 29% and the change in vivo at 3 mg/kg came to 61%. This compound also returned a 50% inhibitory concentration (IC50) against CETP of 1.5 nM.

(Values after patent publication US9493430B2, “Biaryl- or heterocyclic biaryl-substituted cyclohexene derivative compounds as CETP inhibitors” (CHONG KUN DANG PHARMACEUTICAL CORP., priority 2013, dated 2016).)
